Data taken from ChEMBL document CHEMBL1201862, “PubChem BioAssay data set” (2004).
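Growth conditions: 96-well plates. Treatment: test compound, 48 hours, 5 concentrations. Analysis: linear interpolation between bracketing concentrations; unreached endpoints set to highest concentration. At the GI50, growth is halved.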 Calls of active or inactive are those of the source. Rule as the data show it: active = GI50 up to about 1.1 µM and inactive = higher.

Columns and labels:
Test in all cases: inhibition of tumour cell growth, NCI panel, 48 h
DU-145 = test system: DU-145
U-251 = test system: U-251
NCI-H522 = test system: NCI-H522
UO-31 = test system: UO-31
HOP-62 = test system: HOP-62
COLO 205 = test system: COLO 205
PC-3 = test system: PC-3
HCC 2998 = test system: HCC 2998
SNB-19 = test system: SNB-19
SK-OV-3 = test system: SK-OV-3
MDA-MB-435 = test system: MDA-MB-435
MDA-MB-231 = test system: MDA-MB-231
KM12 = test system: KM12
NCI-H23 = test system: NCI-H23
HOP-92 = test system: HOP-92
ACHN = test system: ACHN
M14 = test system: M14
A498 = test system: A498
RPMI-8226 = test system: RPMI-8226

Measured: GI50

CC1(C)[C@@H]2CC[C@]1(C)[C@H](OC(=O)CSC#N)C2
inactive: DU-145 > 100 µM | U-251 > 100 µM | NCI-H522 43.9 µM | UO-31 39.1 µM | HOP-62 > 100 µM | COLO 205 > 100 µM | PC-3 > 100 µM | HCC 2998 > 100 µM | SNB-19 > 100 µM | SK-OV-3 > 100 µM | MDA-MB-435 46.2 µM | MDA-MB-231 > 100 µM | KM12 > 100 µM | NCI-H23 > 100 µM | HOP-92 > 100 µM | ACHN > 100 µM | M14 47.1 µM | A498 > 100 µM

C=CCOCn1ccc(NC(=O)c2ccccc2)nc1=O
inactive: DU-145 > 100 µM | RPMI-8226 > 100 µM | NCI-H522 > 100 µM | UO-31 > 100 µM | HOP-62 > 100 µM | COLO 205 > 100 µM | PC-3 > 100 µM | HCC 2998 > 100 µM | SNB-19 > 100 µM | SK-OV-3 > 100 µM | MDA-MB-435 > 100 µM | MDA-MB-231 > 100 µM | KM12 > 100 µM | NCI-H23 > 100 µM | ACHN > 100 µM | M14 > 100 µM | A498 > 100 µM

O=C(CCN1CCOCC1)c1ccc(Oc2ccc(F)cc2)cc1
inactive: DU-145 36 µM | U-251 53.2 µM | UO-31 19.7 µM | HOP-62 50.2 µM | COLO 205 23 µM | PC-3 19.2 µM | HCC 2998 37.2 µM | SNB-19 > 100 µM | SK-OV-3 > 100 µM | MDA-MB-435 37.6 µM | MDA-MB-231 19.6 µM | KM12 17.4 µM | NCI-H23 26.7 µM | HOP-92 28.1 µM | ACHN 17.9 µM | M14 18.4 µM | A498 > 100 µM

CC(C)(C)C1CCC2c3c([nH]c4ccccc34)C3C(=O)N(c4ccc(C#N)cc4)C(=O)C3C2C1 (stereo not drawn)
inactive: DU-145 13.6 µM | U-251 15.8 µM | RPMI-8226 21.3 µM | UO-31 7.36 µM | HOP-62 15.7 µM | COLO 205 21.4 µM | PC-3 3.66 µM | HCC 2998 3.25 µM | SNB-19 34.4 µM | SK-OV-3 24.4 µM | MDA-MB-435 26.3 µM | MDA-MB-231 15.3 µM | NCI-H23 6.61 µM | HOP-92 4.54 µM | ACHN 15.1 µM | M14 16.1 µM | A498 13.7 µM

NNC1=Nc2ccc(Cl)cc2C(=S)N2CSCC12 (stereo not drawn)
inactive: DU-145 > 100 µM | U-251 > 100 µM | RPMI-8226 > 100 µM | NCI-H522 > 100 µM | UO-31 > 100 µM | HOP-62 > 100 µM | COLO 205 > 100 µM | PC-3 > 100 µM | HCC 2998 > 100 µM | SNB-19 > 100 µM | SK-OV-3 > 100 µM | MDA-MB-435 > 100 µM | MDA-MB-231 > 100 µM | KM12 34.6 µM | ACHN > 100 µM | M14 > 100 µM | A498 > 100 µM

C=C(CC[C@@H](C(=O)O)[C@H]1[C@H](O)C[C@@]2(C)C3=CC[C@@H](C(=C)C)[C@](C)(CCC(=O)O)C3=CC[C@]12C)C(C)C [PORICOIC ACID A]
inactive: DU-145 20.6 µM | U-251 18 µM | NCI-H522 20.4 µM | UO-31 17.2 µM | COLO 205 23.1 µM | PC-3 18.7 µM | HCC 2998 17.9 µM | SNB-19 17.7 µM | SK-OV-3 18 µM | MDA-MB-435 18.8 µM | MDA-MB-231 20.8 µM | KM12 18.3 µM | NCI-H23 16.9 µM | HOP-92 16.6 µM | ACHN 17.6 µM | M14 17.9 µM | A498 23.6 µM

Cn1c(=O)cc(NNc2ccc(Cl)c(Cl)c2)[nH]c1=O
inactive: DU-145 17.5 µM | U-251 12.4 µM | RPMI-8226 > 10 µM | UO-31 12.1 µM | HOP-62 16.4 µM | COLO 205 18.9 µM | PC-3 12.6 µM | HCC 2998 2.53 µM | SNB-19 32.1 µM | SK-OV-3 20.8 µM | MDA-MB-435 3.31 µM | MDA-MB-231 10.8 µM | KM12 12.3 µM | NCI-H23 29.2 µM | HOP-92 14.9 µM | ACHN 5.46 µM | M14 5.25 µM | A498 36.8 µM

CCCCCCCCCCCC(=O)OCC(O)CO (stereo not drawn) [GLYCEROL MONOLAURATE]
inactive: DU-145 > 100 µM | U-251 71.3 µM | NCI-H522 > 100 µM | UO-31 71.9 µM | HOP-62 > 100 µM | COLO 205 > 100 µM | PC-3 > 100 µM | SNB-19 > 100 µM | SK-OV-3 > 100 µM | MDA-MB-435 61.4 µM | MDA-MB-231 > 100 µM | KM12 20.4 µM | NCI-H23 67.3 µM | HOP-92 > 100 µM | ACHN > 100 µM | M14 69.7 µM | A498 > 100 µM
